Like-named read-outs stand apart in the source and are kept apart here.
How the values were obtained:
EMT-6 mammary tumors [1] = test: Comparison with [18F]FLT in tumor-bearing mice; assay type: in vivo; details: 1 hr for [11C]10; 2 hr post-i.v. injection for [76Br]6 and [125I]6i
[2] = target: T1, σ2 receptors in the breast tumors (Mus musculus, UniProt Q8VD00); test: In vivo blocking studies with YUN 143 in tumor-bearing mice; details: blocking agent YUN 143 (1 mg/kg, i.v.); time point of highest % I.D./gram tumor
T1 construct: mature Balb/c mice that were implanted with EMT-6 mammary tumors; from tissue; host or cells: EMT-6 mammary tumours in Balb/c mice, in vivo
T1 sequence (Q8VD00 1-176): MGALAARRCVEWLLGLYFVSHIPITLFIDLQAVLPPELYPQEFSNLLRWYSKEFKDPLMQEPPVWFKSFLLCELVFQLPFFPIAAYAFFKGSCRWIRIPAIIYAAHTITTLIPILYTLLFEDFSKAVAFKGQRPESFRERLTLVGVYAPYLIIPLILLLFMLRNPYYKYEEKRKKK
From the text: The blocking agent was YUN 143, which has a high affinity for σ1 and σ2 receptors. Animals were sacrificed at the time point displaying the highest % I.D./gram tumor.
The inventors then conducted blocking studies in order to confirm that the radiotracer labeled σ2 receptors in the breast tumors. […] We have previously reported that [^18F]YUN 143 labels σ1 and σ2 receptors in breast tumor xenografts (Mach et al., 2001).

[3] = Biodistribution in EMT-6 BALB/C mice; assay type: in vivo; details: Balb/c, mouse, intravenous
Procedure: (§1) As used herein, the term “tumor:background ratio” (i.e., tumor:fat ratio, tumor:muscle ratio, tumor:lung ratio, tumor:blood ratio) refers to the % injected dose/g tissue of the radiotracer in the tumor divided by the % injected dose/g […] in the background tissue (i.e., fat, muscle, lung, blood).
(§2) B. Biodistribution Studies of ^11C analogs in Tumor-Bearing Mice. Biodistribution studies were conducted in mature Balb/c mice that were implanted with EMT-6 mammary tumors identified herein as EMT-6 BALB/C mice to create laboratory tumor-bearing mice. The mice were implanted in the scapular region seven days prior to the study. Animals were injected with 100-150 μCi of the ^11C-labeled radiotracer and the animals were sacrificed at 5, 30, and 60 min post-i.v. injection of the radiotracer.
(§3) A series of biodistribution studies in tumor-bearing mice were also conducted with [^76Br]8, [^76Br]6, [^125I]8i, and [^125I]6i.

EMT-6 mammary tumors [4] = test: Biodistribution in EMT-6 BALB/C mice; assay type: in vivo
Procedure: as §1, §2, §3

EMT-6 mammary tumors [5] = test: Biodistribution study of [76Br]6 (Example 4), low and high dose groups; assay type: in vivo, Balb/C mice
From the text: This compound was studied in mature Balb/C mice that were implanted with EMT-6 mammary tumors. The mice were implanted in the nape of the neck 7 days prior to the study. The biodistribution study consisted of three groups: 1 hr low dose (≈6 μCi), 4 hr low dose and a 4 hr high dose (≈150 μCi). The % ID/g at 1 hr for tumor, brain, fat, blood and liver were 4.0±0.4, 0.25±0.02, 1.1±0.4, 2.1±0.3 and 5.4±0.4, respectively. At 4 hr for the low dose animals the values decreased to 1.2±0.2, 0.15±0.02, 0.3±0.2, 0.82±0.08 and 1.3±0.2, respectively. […] The activity injected into the high dose animals was enough to perform microPET® imaging studies. […] This initial study has shown that this σ2 receptor compound has a high uptake into EMT-6 mammary tumors and can be imaged non-invasively. (MicroPET® is a dedicated PET scanner designed for high resolution imaging of small laboratory animals. It is available from Concorde Microsystems, Inc. 10427 Cogdill Rd, Suite 500 Knoxville, Tenn. 37932 USA.)

[6] = kidney, read-out: % ID per gram kidney
[7] = liver, read-out: % ID per gram liver
[8] = spleen, read-out: % ID per gram spleen

Compound: COc1cc2c(cc1OC)CN(CCCCNC(=O)c1cc([76Br])cc(OC)c1OC)CC2 [[^76Br]6]
- tumor:background ratios compared with [18F]FLT (EMT-6 mammary tumors [1]): higher tumor:background ratios greater than that observed with [^18F]FLT
- in vivo blocking study result [2]: consistent with the labeling of σ2 receptors in vivo
- tissue uptake at 2 h [3, 6]: 1.85 ± 0.54 %ID/g
- tissue uptake at 4 h [3, 6]: 0.57 ± 0.12 %ID/g
- tissue uptake at 2 h [3, 7]: 1.67 ± 0.1 %ID/g
- tissue uptake at 4 h [3, 7]: 0.71 ± 0.08 %ID/g
- tissue uptake at 4 h ([3]; lung, read-out: % ID per gram lung): 0.29 ± 0.03 %ID/g
- tissue uptake at 5 min ([3]; spleen, 5 min, read-out: % ID per gram spleen): 12.5 ± 1.46 %ID/g
- tissue uptake at 30 min ([3]; spleen, 30 min, read-out: % ID per gram spleen): 6.91 ± 1.22 %ID/g
- tissue uptake at 1 h ([3]; spleen, 1 hour, read-out: % ID per gram spleen): 2.61 ± 0.62 %ID/g
- tissue uptake at 2 h [3, 8]: 0.6 ± 0.03 %ID/g
- tissue uptake at 4 h [3, 8]: 0.2 ± 0.03 %ID/g
- ratio Tumor:blood (EMT-6 mammary tumors [4]; 5 min): 2.25 ± 0.28
- ratio Tumor:fat (EMT-6 mammary tumors [4]; 5 min): 1.30 ± 0.24
- ratio Tumor:heart (EMT-6 mammary tumors [4]; 5 min): 0.65 ± 0.07
- ratio Tumor:lung (EMT-6 mammary tumors [4]; 5 min): 0.19 ± 0.02
- ratio Tumor:muscle (EMT-6 mammary tumors [4]; 5 min): 1.32 ± 0.16
- ratio Tumor:blood (EMT-6 mammary tumors [4]; 30 min): 2.41 ± 0.08
- ratio Tumor:fat (EMT-6 mammary tumors [4]; 30 min): 2.35 ± 0.34
- ratio Tumor:heart (EMT-6 mammary tumors [4]; 30 min): 2.48 ± 0.17
- ratio Tumor:lung (EMT-6 mammary tumors [4]; 30 min): 0.93 ± 0.09
- ratio Tumor:muscle (EMT-6 mammary tumors [4]; 30 min): 3.70 ± 1.06
- ratio Tumor:blood (EMT-6 mammary tumors [4]; 1 hour): 2.53 ± 0.54
- ratio Tumor:fat (EMT-6 mammary tumors [4]; 1 hour): 5.09 ± 1.39
- ratio Tumor:heart (EMT-6 mammary tumors [4]; 1 hour): 3.72 ± 0.72
- ratio Tumor:lung (EMT-6 mammary tumors [4]; 1 hour): 1.64 ± 0.30
- ratio Tumor:muscle (EMT-6 mammary tumors [4]; 1 hour): 6.76 ± 2.09
- ratio Tumor:blood (EMT-6 mammary tumors [4]; 2 hour): 3.79 ± 0.99
- ratio Tumor:fat (EMT-6 mammary tumors [4]; 2 hour): 7.97 ± 1.95
- ratio Tumor:heart (EMT-6 mammary tumors [4]; 2 hour): 5.77 ± 0.60
- ratio Tumor:lung (EMT-6 mammary tumors [4]; 2 hour): 2.30 ± 0.13
- ratio Tumor:muscle (EMT-6 mammary tumors [4]; 2 hour): 8.81 ± 0.91
- ratio Tumor:blood (EMT-6 mammary tumors [4]; 4 hour): 3.17 ± 0.58
- ratio Tumor:fat (EMT-6 mammary tumors [4]; 4 hour): 20.69 ± 10.77
- ratio Tumor:heart (EMT-6 mammary tumors [4]; 4 hour): 6.24 ± 1.28
- ratio Tumor:lung (EMT-6 mammary tumors [4]; 4 hour): 2.36 ± 0.46
- ratio Tumor:muscle (EMT-6 mammary tumors [4]; 4 hour): 9.48 ± 2.14
- % ID per gram blood (EMT-6 mammary tumors [4]; 5 min): 2.12 ± 0.20 % ID per gram
- % ID per gram blood (EMT-6 mammary tumors [4]; 30 min): 2.20 ± 0.24 % ID per gram
- % ID per gram blood (EMT-6 mammary tumors [4]; 1 hour): 1.60 ± 0.22 % ID per gram
- % ID per gram blood (EMT-6 mammary tumors [4]; 2 hour): 0.46 ± 0.07 % ID per gram
- % ID per gram blood (EMT-6 mammary tumors [4]; 4 hour): 0.21 ± 0.03 % ID per gram
- % ID per gram bone (EMT-6 mammary tumors [4]; 5 min): 3.10 ± 0.67 % ID per gram
- % ID per gram bone (EMT-6 mammary tumors [4]; 30 min): 2.76 ± 0.58 % ID per gram
- % ID per gram bone (EMT-6 mammary tumors [4]; 1 hour): 1.38 ± 0.09 % ID per gram
- % ID per gram bone (EMT-6 mammary tumors [4]; 2 hour): 0.56 ± 0.20 % ID per gram
- % ID per gram bone (EMT-6 mammary tumors [4]; 4 hour): 0.12 ± 0.03 % ID per gram
- % ID per gram brain (EMT-6 mammary tumors [4]; 5 min): 1.60 ± 0.15 % ID per gram
- % ID per gram brain (EMT-6 mammary tumors [4]; 30 min): 0.41 ± 0.06 % ID per gram
- % ID per gram brain (EMT-6 mammary tumors [4]; 1 hour): 0.17 ± 0.02 % ID per gram
- % ID per gram brain (EMT-6 mammary tumors [4]; 2 hour): 0.05 ± 0.00 % ID per gram
- % ID per gram brain (EMT-6 mammary tumors [4]; 4 hour): 0.03 ± 0.00 % ID per gram
- % ID per gram fat (EMT-6 mammary tumors [4]; 5 min): 3.78 ± 0.97 % ID per gram
- % ID per gram fat (EMT-6 mammary tumors [4]; 30 min): 2.27 ± 0.16 % ID per gram
- % ID per gram fat (EMT-6 mammary tumors [4]; 1 hour): 0.81 ± 0.16 % ID per gram
- % ID per gram fat (EMT-6 mammary tumors [4]; 2 hour): 0.22 ± 0.05 % ID per gram
- % ID per gram fat (EMT-6 mammary tumors [4]; 4 hour): 0.04 ± 0.02 % ID per gram
- % ID per gram heart (EMT-6 mammary tumors [4]; 5 min): 7.31 ± 0.70 % ID per gram
- % ID per gram heart (EMT-6 mammary tumors [4]; 30 min): 2.15 ± 0.30 % ID per gram
- % ID per gram heart (EMT-6 mammary tumors [4]; 1 hour): 1.08 ± 0.07 % ID per gram
- % ID per gram heart (EMT-6 mammary tumors [4]; 2 hour): 0.30 ± 0.03 % ID per gram
- % ID per gram heart (EMT-6 mammary tumors [4]; 4 hour): 0.11 ± 0.02 % ID per gram
- % ID per gram kidney (EMT-6 mammary tumors [4]; 5 min): 31.20 ± 2.92 % ID per gram
- % ID per gram kidney (EMT-6 mammary tumors [4]; 30 min): 18.51 ± 2.66 % ID per gram
- % ID per gram kidney (EMT-6 mammary tumors [4]; 1 hour): 10.81 ± 1.72 % ID per gram
- % ID per gram liver (EMT-6 mammary tumors [4]; 5 min): 10.99 ± 0.29 % ID per gram
- % ID per gram liver (EMT-6 mammary tumors [4]; 30 min): 8.85 ± 0.52 % ID per gram
- % ID per gram liver (EMT-6 mammary tumors [4]; 1 hour): 4.58 ± 0.36 % ID per gram
- % ID per gram lung (EMT-6 mammary tumors [4]; 5 min): 24.64 ± 2.74 % ID per gram
- % ID per gram lung (EMT-6 mammary tumors [4]; 30 min): 5.81 ± 1.12 % ID per gram
- % ID per gram lung (EMT-6 mammary tumors [4]; 1 hour): 2.45 ± 0.17 % ID per gram
- % ID per gram lung (EMT-6 mammary tumors [4]; 2 hour): 0.74 ± 0.04 % ID per gram
- % ID per gram muscle (EMT-6 mammary tumors [4]; 5 min): 3.62 ± 0.27 % ID per gram
- % ID per gram muscle (EMT-6 mammary tumors [4]; 30 min): 1.54 ± 0.49 % ID per gram
- % ID per gram muscle (EMT-6 mammary tumors [4]; 1 hour): 0.61 ± 0.11 % ID per gram
- % ID per gram muscle (EMT-6 mammary tumors [4]; 2 hour): 0.20 ± 0.03 % ID per gram
- % ID per gram muscle (EMT-6 mammary tumors [4]; 4 hour): 0.07 ± 0.01 % ID per gram
- % ID per gram tumor (EMT-6 mammary tumors [4]; 5 min): 4.78 ± 0.78 % ID per gram
- % ID per gram tumor (EMT-6 mammary tumors [4]; 30 min): 5.31 ± 0.62 % ID per gram
- % ID per gram tumor (EMT-6 mammary tumors [4]; 1 hour): 3.98 ± 0.58 % ID per gram
- % ID per gram tumor (EMT-6 mammary tumors [4]; 2 hour): 1.71 ± 0.17 % ID per gram
- % ID per gram tumor (EMT-6 mammary tumors [4]; 4 hour): 0.68 ± 0.15 % ID per gram
- % ID/g for the 4 hr high dose animals versus low dose (EMT-6 mammary tumors [5]; 4 hr, high dose (≈150 μCi)): not significantly different
- % ID/g blood (EMT-6 mammary tumors [5]; 1 hr, low dose (≈6 μCi)): 2.1±0.3 % ID/g
- % ID/g blood (EMT-6 mammary tumors [5]; 4 hr, low dose): 0.82±0.08 % ID/g
- % ID/g brain (EMT-6 mammary tumors [5]; 1 hr, low dose (≈6 μCi)): 0.25±0.02 % ID/g
- % ID/g brain (EMT-6 mammary tumors [5]; 4 hr, low dose): 0.15±0.02 % ID/g
- % ID/g fat (EMT-6 mammary tumors [5]; 1 hr, low dose (≈6 μCi)): 1.1±0.4 % ID/g
- % ID/g fat (EMT-6 mammary tumors [5]; 4 hr, low dose): 0.3±0.2 % ID/g
- % ID/g liver (EMT-6 mammary tumors [5]; 1 hr, low dose (≈6 μCi)): 5.4±0.4 % ID/g
- % ID/g liver (EMT-6 mammary tumors [5]; 4 hr, low dose): 1.3±0.2 % ID/g
- % ID/g tumor (EMT-6 mammary tumors [5]; 1 hr, low dose (≈6 μCi)): 4.0±0.4 % ID/g
- % ID/g tumor (EMT-6 mammary tumors [5]; 4 hr, low dose): 1.2±0.2 % ID/g

Source: patent US7893266B2, “Detection of cancer cells in vitro using sigma-2 receptor ligands as radiotracers” (Washington University, priority 2003, dated 2011)
